Data set [1] is described as follows: Compound cytotoxicity, XTT-based colorimetric assay. Type of data set: cell-based. The conditions noted are these: human; uninfected MT2 cells, day 4, XTT; read-out: CC50. In a few lines:
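CC50 derived from XTT colorimetric signal measured on day 4 in MT2 cells that were not infected. All other steps followed the antiviral assay protocol.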
(Tetrazolium assays rely on reduction of a dye to a coloured formazan, in cell work by metabolically active cells.)

In data set [2] the test system is recombinant NL4-3 virus (nef section replaced with Renilla luciferase gene) in MT-2 cells. As to the kind of experiment: HIV cell culture assay (antiviral activity, luciferase readout). The class given is cell-based. The settings on record: Renilla, NL43, MT-2 cells infected for 4-5 days with recombinant NL4-3 Renilla luciferase virus. The gist of the method:
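Compound activity was measured as reduction of luciferase in MT-2 cells infected for 4-5 days with serially diluted compound present. EC50 values were calculated with the median effect equation.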

As a reminder, the CC50 is the concentration that lowers cell viability or growth by half. One may read the EC50 as the concentration at which the effect is half-maximal. On to `CS(=O)(=O)Nc1nn(CCN2C[C@H](F)C[C@H](F)C2)c2c(-n3c([C@H](Cc4cc(F)cc(F)c4)NC(=O)Cn4nc(C(F)F)c5c4C(F)(F)[C@@H]4C[C@H]54)nc4nc(C5CCC(F)(F)CC5)cc(NCCN5CCOCC5)c4c3=O)ccc(Cl)c12` (atropisomer, axis not shown; (P)) [Example 491, N-[(1S)-1-[(3P)-3-(4-chloro-1-{2-[(3R,5S)-3,5-difluoropiperidin-1-yl]ethyl}-3-methanesulfonamido-1H-indazol-7-yl)-7-(4,4-difluorocyclohexyl)-5-{[2-(morpholin-4-yl)ethyl]amino}-4-oxo-3H,4H-pyrido[2,3-d]pyrimidin-2-yl]-2-(3,5-difluorophenyl)ethyl]-2-[(2S,4R)-9-(difluoromethyl)-5,5-difluoro-7,8-diazatricyclo[4.3.0.0^2,^4]nona-1(6),8-dien-7-yl]acetamide], for which the CC50 at 4 days in data set [1] was more than 20 nM. Moreover, in data set [2], the EC50 was 0.009 nM.

Turning to `COCCCn1nc(NS(C)(=O)=O)c2c(Cl)ccc(-n3c([C@H](Cc4cc(F)cc(F)c4)NC(=O)Cn4nc(C(F)F)c5c4C(F)(F)[C@@H]4C[C@H]54)nc4nc(C5CCC(F)(F)CC5)cc(NCCN5CCC(F)(F)CC5)c4c3=O)c21` (atropisomer, axis not shown; (P)) [Example 498, N-[(1S)-1-[(3P)-3-[4-chloro-3-methanesulfonamido-1-(3-methoxypropyl)-1H-indazol-7-yl]-7-(4,4-difluorocyclohexyl)-5-{[2-(4,4-difluoropiperidin-1-yl)ethyl]amino}-4-oxo-3H,4H-pyrido[2,3-d]pyrimidin-2-yl]-2-(3,5-difluorophenyl)ethyl]-2-[(2S,4R)-9-(difluoromethyl)-5,5-difluoro-7,8-diazatricyclo[4.3.0.0^2,^4]nona-1(6),8-dien-7-yl]acetamide], in data set [1], the CC50 at 4 days was more than 20 nM. Further, the concentration giving a half-maximal response (EC50) in data set [2] was 0.018 nM.

For `COCCCn1nc(NS(C)(=O)=O)c2c(Cl)ccc(-n3c([C@H](Cc4cc(F)cc(F)c4)NC(=O)Cn4nc(C(F)F)c5c4C(F)(F)[C@@H]4C[C@H]54)nc4nc(C5CCC(F)(F)CC5)cc(NCCN5CCC5)c4c3=O)c21` (atropisomer, axis not shown; (P)) [Example 500, N-[(1S)-1-[(3P)-5-{[2-(azetidin-1-yl)ethyl]amino}-3-[4-chloro-3-methanesulfonamido-1-(3-methoxypropyl)-1H-indazol-7-yl]-7-(4,4-difluorocyclohexyl)-4-oxo-3H,4H-pyrido[2,3-d]pyrimidin-2-yl]-2-(3,5-difluorophenyl)ethyl]-2-[(2S,4R)-9-(difluoromethyl)-5,5-difluoro-7,8-diazatricyclo[4.3.0.0^2,^4]nona-1(6),8-dien-7-yl]acetamide], in data set [1], the CC50 at 4 days is more than 20 nM. In addition, the EC50 in data set [2] turned out to be 0.049 nM.

Consider `Cc1cc(C2(F)CCC(F)(F)CC2)nc2nc([C@H](Cc3cc(F)cc(F)c3)NC(=O)Cn3nc(C(F)F)c4c3C(F)(F)[C@@H]3C[C@H]43)n(-c3ccc(Cl)c4c(NS(C)(=O)=O)nn(CCN5CC(C)(C)OC(C)(C)C5)c34)c(=O)c12` (atropisomer, axis not shown; (P)) [Example 501, N-[(1S)-1-[(3P)-3-{4-chloro-3-methanesulfonamido-1-[2-(2,2,6,6-tetramethylmorpholin-4-yl)ethyl]-1H-indazol-7-yl}-5-methyl-4-oxo-7-(1,4,4-trifluorocyclohexyl)-3H,4H-pyrido[2,3-d]pyrimidin-2-yl]-2-(3,5-difluorophenyl)ethyl]-2-[(2S,4R)-9-(difluoromethyl)-5,5-difluoro-7,8-diazatricyclo[4.3.0.0^2,^4]nona-1(6),8-dien-7-yl]acetamide], for which the CC50 at 4 days in data set [1] was more than 20 nM. Moreover, in data set [2], the EC50 is 0.016 nM.

`Cc1cc(C2(F)CCC(F)(F)CC2)nc2nc([C@H](Cc3cc(F)cc(F)c3)NC(=O)Cn3nc(C(F)F)c4c3C(F)(F)[C@@H]3C[C@H]43)n(-c3ccc(Cl)c4c(NS(C)(=O)=O)nn(CCN5C[C@@H](C)O[C@@H](C)C5)c34)c(=O)c12` (atropisomer, axis not shown; (P)) [Example 502, N-[(1S)-1-[(3P)-3-(4-chloro-1-{2-[(2R,6S)-2,6-dimethylmorpholin-4-yl]ethyl}-3-methanesulfonamido-1H-indazol-7-yl)-5-methyl-4-oxo-7-(1,4,4-trifluorocyclohexyl)-3H,4H-pyrido[2,3-d]pyrimidin-2-yl]-2-(3,5-difluorophenyl)ethyl]-2-[(2S,4R)-9-(difluoromethyl)-5,5-difluoro-7,8-diazatricyclo[4.3.0.0^2,^4]nona-1(6),8-dien-7-yl]acetamide]: the CC50 at 4 days in data set [1] is more than 20 nM. Besides, the EC50 in data set [2] was 0.019 nM.

As to `Cc1cc(C2(F)CCC(F)(F)CC2)nc2nc([C@H](Cc3cc(F)cc(F)c3)NC(=O)Cn3nc(C4CC4)c4c3C[C@@H]3C[C@H]43)n(-c3ccc(Cl)c4c(NS(C)(=O)=O)nn(CCN5C[C@@H](C)O[C@@H](C)C5)c34)c(=O)c12` (atropisomer, axis not shown; (P)) [Example 503, N-[(1S)-1-[(3P)-3-(4-chloro-1-{2-[(2R,6S)-2,6-dimethylmorpholin-4-yl]ethyl}-3-methanesulfonamido-1H-indazol-7-yl)-5-methyl-4-oxo-7-(1,4,4-trifluorocyclohexyl)-3H,4H-pyrido[2,3-d]pyrimidin-2-yl]-2-(3,5-difluorophenyl)ethyl]-2-[(2S,4S)-9-cyclopropyl-7,8-diazatricyclo[4.3.0.0^2,4]nona-1(6),8-dien-7-yl]acetamide], the CC50 at 4 days in data set [1] was more than 20 nM. Further, the EC50 in data set [2] was 0.008 nM.

As to `Cc1cc(C2(F)CCC(F)(F)CC2)nc2nc([C@H](Cc3cc(F)cc(F)c3)NC(=O)Cn3nc(C4CC4)c4c3C[C@@H]3C[C@H]43)n(-c3ccc(Cl)c4c(NS(C)(=O)=O)nn(CCN5CC(C)(C)OC(C)(C)C5)c34)c(=O)c12` (atropisomer, axis not shown; (P)) [Example 504, N-[(1S)-1-[(3P)-3-{4-chloro-3-methanesulfonamido-1-[2-(2,2,6,6-tetramethylmorpholin-4-yl)ethyl]-1H-indazol-7-yl}-5-methyl-4-oxo-7-(1,4,4-trifluorocyclohexyl)-3H,4H-pyrido[2,3-d]pyrimidin-2-yl]-2-(3,5-difluorophenyl)ethyl]-2-[(2S,4S)-9-cyclopropyl-7,8-diazatricyclo[4.3.0.0^2,^4]nona-1(6),8-dien-7-yl]acetamide], the CC50 at 4 days in data set [1] is more than 20 nM. In addition, the EC50 in data set [2] was determined as 0.049 nM.

Consider `Cc1cc(C2(C)CCC(F)(F)CC2)nc2nc([C@H](Cc3cc(F)cc(F)c3)NC(=O)Cn3nc(C(F)F)c4c3C(F)(F)[C@@H]3C[C@H]43)n(-c3ccc(Cl)c4c(NS(C)(=O)=O)nn(CCN5C[C@@H](C)O[C@@H](C)C5)c34)c(=O)c12` (atropisomer, axis not shown; (P)) [Example 505, N-[(1S)-1-[(3P)-3-(4-chloro-1-{2-[(2R,6S)-2,6-dimethylmorpholin-4-yl]ethyl}-3-methanesulfonamido-1H-indazol-7-yl)-7-(4,4-difluoro-1-methylcyclohexyl)-5-methyl-4-oxo-3H,4H-pyrido[2,3-d]pyrimidin-2-yl]-2-(3,5-difluorophenyl)ethyl]-2-[(2S,4R)-9-(difluoromethyl)-5,5-difluoro-7,8-diazatricyclo[4.3.0.0^2,^4]nona-1(6),8-dien-7-yl]acetamide], for which, in data set [1], the CC50 at 4 days is more than 20 nM. Also, the EC50 in data set [2] amounted to 0.013 nM.

With `Cc1cc(C2(C)CCC(F)(F)CC2)nc2nc([C@H](Cc3cc(F)cc(F)c3)NC(=O)Cn3nc(C4CC4)c4c3C[C@@H]3C[C@H]43)n(-c3ccc(Cl)c4c(NS(C)(=O)=O)nn(CCN5CC(C)(C)OC(C)(C)C5)c34)c(=O)c12` (atropisomer, axis not shown; (P)) [Example 506, N-[(1S)-1-[(3P)-3-{4-chloro-3-methanesulfonamido-1-[2-(2,2,6,6-tetramethylmorpholin-4-yl)ethyl]-1H-indazol-7-yl}-7-(4,4-difluoro-1-methylcyclohexyl)-5-methyl-4-oxo-3H,4H-pyrido[2,3-d]pyrimidin-2-yl]-2-(3,5-difluorophenyl)ethyl]-2-[(2S,4S)-9-cyclopropyl-7,8-diazatricyclo[4.3.0.0^2,^4]nona-1(6),8-dien-7-yl]acetamide], the CC50 at 4 days in data set [1] is more than 20 nM. For the same molecule, in data set [2], the EC50 turned out to be 0.027 nM.

In the case of `Cc1cc(C2(C)CCC(F)(F)CC2)nc2nc([C@H](Cc3cc(F)cc(F)c3)NC(=O)Cn3nc(C(F)F)c4c3C(F)(F)[C@@H]3C[C@H]43)n(-c3ccc(Cl)c4c(NS(C)(=O)=O)nn(CCN5CC(C)(C)OC(C)(C)C5)c34)c(=O)c12` (atropisomer, axis not shown; (P)) [Example 507, N-[(1S)-1-[(3P)-3-{4-chloro-3-methanesulfonamido-1-[2-(2,2,6,6-tetramethylmorpholin-4-yl)ethyl]-1H-indazol-7-yl}-7-(4,4-difluoro-1-methylcyclohexyl)-5-methyl-4-oxo-3H,4H-pyrido[2,3-d]pyrimidin-2-yl]-2-(3,5-difluorophenyl)ethyl]-2-[(2S,4R)-9-(difluoromethyl)-5,5-difluoro-7,8-diazatricyclo[4.3.0.0^2,^4]nona-1(6),8-dien-7-yl]acetamide], the cytotoxic concentration (CC50) at 4 days in data set [1] was more than 20 nM. Besides, in data set [2], the half-maximal effective concentration (EC50) came out at 0.021 nM.

For `Cc1cc(C2(C)CCC(F)(F)CC2)nc2nc([C@H](Cc3cc(F)cc(F)c3)NC(=O)Cn3nc(C4CC4)c4c3C[C@@H]3C[C@H]43)n(-c3ccc(Cl)c4c(NS(C)(=O)=O)nn(CCN5C[C@@H](C)O[C@@H](C)C5)c34)c(=O)c12` (atropisomer, axis not shown; (P)) [Example 508, N-[(1S)-1-[(3P)-3-(4-chloro-1-{2-[(2R,6S)-2,6-dimethylmorpholin-4-yl]ethyl}-3-methanesulfonamido-1H-indazol-7-yl)-7-(4,4-difluoro-1-methylcyclohexyl)-5-methyl-4-oxo-3H,4H-pyrido[2,3-d]pyrimidin-2-yl]-2-(3,5-difluorophenyl)ethyl]-2-[(2S,4S)-9-cyclopropyl-7,8-diazatricyclo[4.3.0.0^2,^4]nona-1(6),8-dien-7-yl]acetamide], the CC50 at 4 days in data set [1] is more than 20 nM. Besides, in data set [2], the EC50 was determined as 0.012 nM.

(Values after patent US12594276B2, “Inhibitors of human immunodeficiency virus replication” (ViiV Healthcare UK (No.5) Limited, priority 2024, dated 2026).)
